Measurements reported in PubChem BioAssay AID330 (DTP/NCI, 2004).
“And” between values parts separate entries of the source, which are not always exact repeats. Equal values may be shown once. Inconclusive results and toxic doses are left out.

Tested on: P388 leukemia ip, CD2F1 mice, survival T/C
Assay: NCI In Vivo Anticancer Drug Screen. Data for tumor model P388 Leukemia (intraperitoneal) in CD2F1 (CDF1) mice
Settings: endpoint: median survival time, higher = longer survival
Method in brief: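 Mice carrying the transplanted tumor received test compound or vehicle. Survival was recorded in each group, and the value is the treated-group measurement divided by that of the vehicle-treated control group.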

[1] = dose: 25.0 mg/kg/injection, schedule: Q01DX009 (ip), vehicle: saline with Tween-80
[2] = dose: 50.0 mg/kg/injection, schedule: Q04DX003 (ip), vehicle: saline with Tween-80
[3] = dose: 50.0 mg/kg/injection, schedule: Q01DX005 (ip), vehicle: saline with Tween-80
[4] = dose: 100.0 mg/kg/injection, schedule: Q01DX005 (ip), vehicle: saline with Tween-80
[5] = dose: 200.0 mg/kg/injection, schedule: Q01DX005 (ip), vehicle: saline with Tween-80
[6] = dose: 50.0 mg/kg/injection, schedule: Q01DX009 (ip), vehicle: Klucel (hydroxypropylcellulose) (HPC)
[7] = dose: 50.0 mg/kg/injection, schedule: Q01DX009 (ip), vehicle: saline
[8] = dose: 100.0 mg/kg/injection, schedule: Q01DX009 (ip), vehicle: saline

O=c1ccc2ccc(OC3OC(CO)C(O)C(O)C3O)cc2o1 (stereo not drawn)
T/C (dose: 1.0 mg/kg/injection, schedule: Q01DX009 (ip), vehicle: saline with Tween-80): 106 % of control
T/C (dose: 2.0 mg/kg/injection, schedule: Q01DX009 (ip), vehicle: saline with Tween-80): 100 % of control
T/C (dose: 4.0 mg/kg/injection, schedule: Q01DX009 (ip), vehicle: saline with Tween-80): 104 % of control

CCN(CC)c1ccc(/C=C/c2ccnc3ccccc23)cc1
T/C (dose: 12.5 mg/kg/injection, schedule: Q01DX009 (ip), vehicle: saline with Tween-80): 118 % of control
T/C (dose: 12.5 mg/kg/injection, schedule: Q04DX003 (ip), vehicle: saline sonified): 100 % of control
T/C (dose: 12.5 mg/kg/injection, schedule: Q04DX003 (ip), vehicle: saline with Tween-80): 90 % of control
T/C (dose: 20.0 mg/kg/injection, schedule: Q04DX003 (ip), vehicle: saline): 113 % of control
T/C [1]: 104 % of control
T/C (dose: 25.0 mg/kg/injection, schedule: Q04DX003 (ip), vehicle: saline sonified): 104 % of control
T/C (dose: 25.0 mg/kg/injection, schedule: Q04DX003 (ip), vehicle: saline with Tween-80): 100 % of control
T/C (dose: 40.0 mg/kg/injection, schedule: Q04DX003 (ip), vehicle: saline): 118 % of control
T/C (dose: 50.0 mg/kg/injection, schedule: Q04DX003 (ip), vehicle: saline sonified): 109 % of control
T/C [2]: 109 % of control

CN(c1ccccc1)C(C#N)c1n[nH]c(=O)[nH]1 (stereo not drawn)
T/C (dose: 25.0 mg/kg/injection, schedule: Q04DX002 (ip), vehicle: saline with Tween-80): 100 % of control
T/C (dose: 50.0 mg/kg/injection, schedule: Q04DX002 (ip), vehicle: saline with Tween-80): 100 % of control
T/C (dose: 100.0 mg/kg/injection, schedule: Q04DX002 (ip), vehicle: saline with Tween-80): 93 % of control

COCCOCCOCCOCCO
T/C [3]: 102 % of control
T/C [4]: 100 % of control
T/C [5]: 104 % of control

CN1CCN(C(=O)/C(=C/c2ccccc2)NC(=O)c2ccccc2)CC1
T/C [3]: 96 % of control
T/C [4]: 95 % of control
T/C [5]: 87 % of control

O=C(NCc1ccccc1)N1CCN(c2ccccc2)C1=O
T/C [1]: 103 % of control and 88 % of control
T/C (dose: 50.0 mg/kg/injection, schedule: Q01DX009 (ip), vehicle: saline with Tween-80): 98 % of control and 89 % of control and 96 % of control
T/C (dose: 100.0 mg/kg/injection, schedule: Q01DX009 (ip), vehicle: saline with Tween-80): 97 % of control
T/C (dose: 200.0 mg/kg/injection, schedule: Q01DX009 (ip), vehicle: saline with Tween-80): 98 % of control and 89 % of control and 93 % of control

CCC1(c2ccccc2)C(=O)N(C)C(=O)N(CCCl)C1=O (stereo not drawn)
T/C [6]: 96 % of control
T/C (dose: 100.0 mg/kg/injection, schedule: Q01DX009 (ip), vehicle: Klucel (hydroxypropylcellulose) (HPC)): 98 % of control
T/C (dose: 200.0 mg/kg/injection, schedule: Q01DX009 (ip), vehicle: Klucel (hydroxypropylcellulose) (HPC)): 93 % of control

COc1ccc(CCNS(=O)(=O)c2c(C)c(C)c(C)c(C)c2C)cc1OC
T/C (dose: 50.0 mg/kg/injection, schedule: Q01DX005 (ip), vehicle: Klucel (hydroxypropylcellulose) (HPC)): 93 % of control
T/C (dose: 100.0 mg/kg/injection, schedule: Q01DX005 (ip), vehicle: Klucel (hydroxypropylcellulose) (HPC)): 88 % of control

C=C1CCC(=O)NC1=O
T/C (dose: 6.25 mg/kg/injection, schedule: Q01DX005 (ip), vehicle: saline): 105 % of control
T/C (dose: 12.5 mg/kg/injection, schedule: Q01DX005 (ip), vehicle: saline): 102 % of control
T/C (dose: 25.0 mg/kg/injection, schedule: Q01DX005 (ip), vehicle: saline): 99 % of control
T/C [3]: 116 % of control

O=C(O)/C=C/C(=O)Nc1ccc(N=Nc2ccccc2)cc1
T/C [2]: 104 % of control
T/C (dose: 100.0 mg/kg/injection, schedule: Q04DX003 (ip), vehicle: saline with Tween-80): 100 % of control
T/C (dose: 200.0 mg/kg/injection, schedule: Q04DX003 (ip), vehicle: saline with Tween-80): 90 % of control

C1C2CC3C1C1OC3C21
T/C (dose: 60.0 mg/kg/injection, schedule: Q01DX005 (ip), vehicle: Klucel (hydroxypropylcellulose) (HPC)): 100 % of control
T/C (dose: 120.0 mg/kg/injection, schedule: Q01DX005 (ip), vehicle: Klucel (hydroxypropylcellulose) (HPC)): 99 % of control
T/C (dose: 240.0 mg/kg/injection, schedule: Q01DX005 (ip), vehicle: Klucel (hydroxypropylcellulose) (HPC)): 100 % of control

COc1ccc(OC)c(NC(=O)Sc2c(Cl)c(Cl)nc(Cl)c2Cl)c1
T/C [6]: 120 % of control

C[N+](C)(C)CC[N+](C)(C)Cc1cccc2ccccc12
T/C [7]: 106 % of control
T/C [8]: 107 % of control

Cc1cc(C)n(-c2ccncc2[N+](=O)[O-])n1
T/C [7]: 101 % of control
T/C [8]: 97 % of control
T/C (dose: 200.0 mg/kg/injection, schedule: Q01DX009 (ip), vehicle: saline): 105 % of control

N#CNC(=S)S
T/C (dose: 100.0 mg/kg/injection, schedule: Q04DX002 (ip), vehicle: saline): 105 % of control
T/C (dose: 200.0 mg/kg/injection, schedule: Q04DX002 (ip), vehicle: saline): 109 % of control
T/C (dose: 400.0 mg/kg/injection, schedule: Q04DX002 (ip), vehicle: saline): 105 % of control

CCOC(=O)NC(NC(=O)OCC)c1ccccc1
T/C (dose: 100.0 mg/kg/injection, schedule: Q04DX003 (ip), vehicle: saline): 100 % of control
T/C (dose: 200.0 mg/kg/injection, schedule: Q04DX003 (ip), vehicle: saline): 98 % of control
T/C (dose: 400.0 mg/kg/injection, schedule: Q04DX003 (ip), vehicle: saline): 92 % of control

CCC1(O)CC2CN(CCc3c([nH]c4ccccc34)C(C(=O)OC)(c3cc4c(cc3OC)N(C)C3C(O)(C(N)=O)C(O)C5(CC)C=CCN6CCC43C65)C2)C1 (stereo not drawn) (tested in a mixture with another compound)
T/C (dose: 0.06 mg/kg/injection, schedule: Q01DX009 (ip), vehicle: water): 107 % of control
T/C (dose: 0.11 mg/kg/injection, schedule: Q04DX003 (ip), vehicle: clinical formulation): 158 % of control
T/C (dose: 0.13 mg/kg/injection, schedule: Q04DX003 (ip), vehicle: saline): 161 % of control
T/C (dose: 0.18 mg/kg/injection, schedule: Q04DX003 (ip), vehicle: clinical formulation): 161 % of control
T/C (dose: 0.22 mg/kg/injection, schedule: Q01DX009 (ip), vehicle: water): 123 % of control
T/C (dose: 0.25 mg/kg/injection, schedule: Q04DX003 (ip), vehicle: water): 158 % of control
T/C (dose: 0.3 mg/kg/injection, schedule: Q04DX003 (ip), vehicle: clinical formulation): 180 % of control
T/C (dose: 0.5 mg/kg/injection, schedule: Q04DX003 (ip), vehicle: clinical formulation): 179 % of control
T/C (dose: 0.5 mg/kg/injection, schedule: Q04DX003 (ip), vehicle: saline): 203 % of control and 216 % of control
T/C (dose: 0.5 mg/kg/injection, schedule: Q04DX003 (ip), vehicle: water): 163 % of control
T/C (dose: 0.6 mg/kg/injection, schedule: Q01DX009 (ip), vehicle: water): 97 % of control
T/C (dose: 0.67 mg/kg/injection, schedule: Q04DX003 (ip), vehicle: saline): 177 % of control
T/C (dose: 0.67 mg/kg/injection, schedule: Q04DX003 (ip), vehicle: water): 202 % of control
T/C (dose: 0.83 mg/kg/injection, schedule: Q04DX003 (ip), vehicle: clinical formulation): 215 % of control
T/C (dose: 1.0 mg/kg/injection, schedule: Q01DX009 (ip), vehicle: water): 100 % of control and 223 % of control
T/C (dose: 1.0 mg/kg/injection, schedule: Q04DX003 (ip), vehicle: saline): 189 % of control and 191 % of control
T/C (dose: 1.0 mg/kg/injection, schedule: Q04DX003 (ip), vehicle: water): 188 % of control and 200 % of control
T/C (dose: 1.08 mg/kg/injection, schedule: Q04DX003 (ip), vehicle: clinical formulation): 170 % of control
T/C (dose: 1.3 mg/kg/injection, schedule: Q04DX003 (ip), vehicle: water): 222 % of control
T/C (dose: 1.5 mg/kg/injection, schedule: Q04DX003 (ip), vehicle: saline): 184 % of control
T/C (dose: 1.5 mg/kg/injection, schedule: Q04DX003 (ip), vehicle: water): 268 % of control
T/C (dose: 1.8 mg/kg/injection, schedule: Q04DX003 (ip), vehicle: clinical formulation): 173 % of control
T/C (dose: 2.0 mg/kg/injection, schedule: Q04DX003 (ip), vehicle: water): 186 % of control and 283 % of control
T/C (dose: 3.0 mg/kg/injection, schedule: Q04DX003 (ip), vehicle: clinical formulation): 95 % of control
T/C (dose: 3.0 mg/kg/injection, schedule: Q04DX003 (ip), vehicle: water): 123 % of control
